Measured values published in PubChem BioAssay (NCI).
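All cell lines were grown in 96-well plates and treated with compound for 48 hours. At the TGI there is no net growth.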

Experiments:
Experiment in all cases: NCI tumour cell line growth inhibition, 48 h
786-0 renal = system: 786-0 renal
A498 renal = system: A498 renal
A549 NSCLC = system: A549 NSCLC
ACHN renal = system: ACHN renal
BT-549 breast = system: BT-549 breast
CAKI-1 renal = system: CAKI-1 renal
CCRF-CEM leukemia = system: CCRF-CEM leukemia
COLO 205 colon = system: COLO 205 colon
DU-145 prostate = system: DU-145 prostate
EKVX NSCLC = system: EKVX NSCLC
HCC-2998 colon = system: HCC-2998 colon
HCT-116 colon = system: HCT-116 colon
HCT-15 colon = system: HCT-15 colon
HL-60(TB) leukemia = system: HL-60(TB) leukemia
HOP-62 NSCLC = system: HOP-62 NSCLC
HOP-92 NSCLC = system: HOP-92 NSCLC
HS 578T breast = system: HS 578T breast
HT29 colon = system: HT29 colon
IGROV1 ovarian = system: IGROV1 ovarian
KM12 colon = system: KM12 colon
LOX IMVI melanoma = system: LOX IMVI melanoma
M14 melanoma = system: M14 melanoma
MALME-3M melanoma = system: MALME-3M melanoma
MCF7 breast = system: MCF7 breast
MDA-MB-231 breast = system: MDA-MB-231 breast
MDA-MB-435 = system: MDA-MB-435
MDA-N = system: MDA-N
MOLT-4 leukemia = system: MOLT-4 leukemia
NCI-H226 lung = system: NCI-H226 lung
NCI-H23 lung = system: NCI-H23 lung
NCI-H460 lung = system: NCI-H460 lung
NCI-H522 lung = system: NCI-H522 lung
NCI/ADR-RES ovarian = system: NCI/ADR-RES ovarian
OVCAR-3 ovarian = system: OVCAR-3 ovarian
OVCAR-4 ovarian = system: OVCAR-4 ovarian
OVCAR-5 ovarian = system: OVCAR-5 ovarian
OVCAR-8 ovarian = system: OVCAR-8 ovarian
PC-3 prostate = system: PC-3 prostate
RPMI-8226 leukemia = system: RPMI-8226 leukemia
SF-539 CNS = system: SF-539 CNS
SK-MEL-2 melanoma = system: SK-MEL-2 melanoma
SK-MEL-28 melanoma = system: SK-MEL-28 melanoma
SK-MEL-5 melanoma = system: SK-MEL-5 melanoma
SK-OV-3 ovarian = system: SK-OV-3 ovarian
SN12C renal = system: SN12C renal
SR leukemia = system: SR leukemia
SW-620 colon = system: SW-620 colon
TK-10 renal = system: TK-10 renal
U251 CNS = system: U251 CNS
UACC-257 melanoma = system: UACC-257 melanoma
UACC-62 melanoma = system: UACC-62 melanoma
UO-31 renal = system: UO-31 renal
K-562 leukemia = system: K-562 leukemia
RXF 393 renal = system: RXF 393 renal
SF-268 CNS = system: SF-268 CNS
SF-295 CNS = system: SF-295 CNS
SNB-19 CNS = system: SNB-19 CNS
SNB-75 CNS = system: SNB-75 CNS

Measured: TGI

O=[N+]([O-])/C=C/c1cn(CCCCCCCCCCCCn2cc(/C=C/[N+](=O)[O-])c3ccccc32)c2ccccc12
> 100 µM: 786-0 renal | A498 renal | A549 NSCLC | ACHN renal | BT-549 breast | CAKI-1 renal | CCRF-CEM leukemia | COLO 205 colon | DU-145 prostate | EKVX NSCLC | HCC-2998 colon | HCT-116 colon | HCT-15 colon | HL-60(TB) leukemia | HOP-62 NSCLC | HOP-92 NSCLC | HS 578T breast | HT29 colon | IGROV1 ovarian | KM12 colon | LOX IMVI melanoma | M14 melanoma | MALME-3M melanoma | MCF7 breast | MDA-MB-231 breast | MDA-MB-435 | MDA-N | MOLT-4 leukemia | NCI-H226 lung | NCI-H23 lung | NCI-H460 lung | NCI-H522 lung | NCI/ADR-RES ovarian | OVCAR-3 ovarian | OVCAR-4 ovarian | OVCAR-5 ovarian | OVCAR-8 ovarian | PC-3 prostate | RPMI-8226 leukemia | SF-539 CNS | SK-MEL-2 melanoma | SK-MEL-28 melanoma | SK-MEL-5 melanoma | SK-OV-3 ovarian | SN12C renal | SR leukemia | SW-620 colon | TK-10 renal | U251 CNS | UACC-257 melanoma | UACC-62 melanoma | UO-31 renal

Cc1ccc(S(=O)(=O)NC(=O)Nc2cc(Cl)c(S(N)(=O)=O)cc2S(N)(=O)=O)cc1
> 100 µM: 786-0 renal | A549 NSCLC | BT-549 breast | CAKI-1 renal | CCRF-CEM leukemia | COLO 205 colon | DU-145 prostate | EKVX NSCLC | HCT-116 colon | HCT-15 colon | HL-60(TB) leukemia | HOP-62 NSCLC | HOP-92 NSCLC | HS 578T breast | HT29 colon | IGROV1 ovarian | K-562 leukemia | KM12 colon | LOX IMVI melanoma | M14 melanoma | MALME-3M melanoma | MCF7 breast | MDA-MB-231 breast | MDA-MB-435 | MDA-N | MOLT-4 leukemia | NCI-H226 lung | NCI-H23 lung | NCI-H522 lung | NCI/ADR-RES ovarian | OVCAR-3 ovarian | OVCAR-4 ovarian | OVCAR-5 ovarian | OVCAR-8 ovarian | RPMI-8226 leukemia | RXF 393 renal | SF-268 CNS | SF-295 CNS | SF-539 CNS | SK-MEL-2 melanoma | SK-MEL-28 melanoma | SK-MEL-5 melanoma | SK-OV-3 ovarian | SN12C renal | SNB-19 CNS | SNB-75 CNS | SW-620 colon | TK-10 renal | U251 CNS | UACC-257 melanoma | UACC-62 melanoma | UO-31 renal
